Reference: US8288375B2, “Fungicidal bicyclic pyrazoles” (E.I. du Pont de Nemours and Company, priority 2007, dated 2012)

Experiments:
[1] = system: Erysiphe graminis f. sp. tritici; test: Test A: wheat powdery mildew, test suspension sprayed on wheat seedlings, disease rating; format: in vivo; conditions: 200 ppm test suspension, 100 = 100% disease control, 0 = no control; for pest or weed control at 200 ppm: Blumeria graminis, 192 h
Septoria nodorum = test: Test D: wheat glume blotch, test suspension sprayed on wheat seedlings, disease rating; format: in vivo; conditions: 200 ppm test suspension; for pest or weed control at 200 ppm: Parastagonospora nodorum, 216 h
Septoria tritici = test: Test E: wheat leaf blotch, test suspension sprayed on wheat seedlings, disease rating; format: in vivo; conditions: for pest or weed control at 200 ppm / Test E disease control rating: 200 ppm test suspension;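 on all read-outs here: 200 ppm unless marked * meaning 40 ppm or ** meaning 10 ppm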
Phytophthora infestans = test: whole plant or invertebrate; format: in vivo; conditions: for Test J disease control rating: 200 ppm test suspension
Pythium aphanidermatum = test: Test L: bluegrass pythium blight, test suspension sprayed on bluegrass seedlings, disease rating; format: in vivo; conditions: for pest or weed control at 200 ppm / Test L disease control rating: 200 ppm test suspension;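 on all read-outs here: 200 ppm unless marked * meaning 40 ppm or ** meaning 10 ppm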
[2] = system: Puccinia recondite f sp. tritici; test: Test B: wheat leaf rust, test suspension sprayed on wheat seedlings, disease rating; format: in vivo; conditions: for pest or weed control at 200 ppm / Test B disease control rating: 200 ppm test suspension;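 on all read-outs here: 200 ppm unless marked * meaning 40 ppm or ** meaning 10 ppm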
Fusarium graminearum = test: whole plant or invertebrate; format: in vivo; conditions: for Test C disease control rating: 200 ppm test suspension
[3] = system: Colletotrichum orbiculare; test: Test F: cucumber Colletotrichum anthracnose, test suspension sprayed on cucumber seedlings, disease rating; format: in vivo; conditions: 200 ppm test suspension
Alternaria solani = test: Test G: tomato early blight, test suspension sprayed on seedlings, disease rating; format: in vivo; conditions: Alternaria solani, 168 h;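 further: 200 ppm unless marked * meaning 40 ppm or ** meaning 10 ppm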
Botrytis cinerea = test: Test H: tomato Botrytis, test suspension sprayed on tomato seedlings, disease rating; format: in vivo; conditions: 200 ppm test suspension; for pest or weed control at 200 ppm: Botrytis cinerea, 120 h
Rhizoctonia oryzae = test: Test I: turf brown patch, test suspension sprayed on creeping bent grass seedlings, disease rating; format: in vivo; conditions: 200 ppm test suspension
Plasmopara viticola = test: Test K: grape downy mildew, grape seedlings inoculated and then sprayed, disease rating; format: in vivo; conditions: 200 ppm test suspension
[4] = Phytophthora infestans, in Solanum lycopersicum, 120 h, read-out: Test J disease control rating
[5] = Fusarium graminearum, in Triticum aestivum, 192 h, read-out: Test C disease control rating

Row | Structure (SMILES) | melting point [°C] | pest or weed control at 200 ppm [1] [%] | pest or weed control at 200 ppm (Septoria nodorum) [%] | pest or weed control at 200 ppm (Septoria tritici; Zymoseptoria tritici, 504 h) [%] | pest or weed control at 200 ppm (Phytophthora infestans; [4]) [%] | pest or weed control at 200 ppm (Pythium aphanidermatum; Pythium aphanidermatum, 120 h) [%] | pest or weed control at 200 ppm ([2]; Puccinia, 192 h) [%] | pest or weed control at 200 ppm (Fusarium graminearum; [5]) [%] | Test A disease control rating [1] [%] | Test B disease control rating [2] [%] | Test C disease control rating (Fusarium graminearum) [%] | Test D disease control rating (Septoria nodorum) [%] | Test E disease control rating (Septoria tritici) [%] | Test F disease control rating [3] [%] | Test H disease control rating (Botrytis cinerea) [%] | Test I disease control rating (Rhizoctonia oryzae) [%] | Test J disease control rating (Phytophthora infestans) [%] | Test K disease control rating (Plasmopara viticola) [%] | Test L disease control rating (Pythium aphanidermatum) [%] | also measured
1 | Fc1ccc(-c2nn3c(c2-c2ccnc(Cl)n2)CCCN3)cc1 | 206 to 207 |  |  |  |  |  |  |  |  |  |  |  |  |  |  |  |  |  |  | 
2 | Fc1ccc(-c2nn3c(c2-c2ccnc(NCC4CC4)n2)CCCC3)cc1 [Compound 24, N-(cyclopropylmethyl)-4-[2-(4-fluorophenyl)-4,5,6,7-tetrahydropyrazolo[1,5-a]pyridin-3-yl]-2-pyrimidinamine] | 124 to 125 | 97 | 98 | 98 | 72 | 0 |  |  |  |  |  |  |  |  |  |  |  |  |  | 
3 | Fc1ccc(-c2nn3c(c2-c2ccnc(NC4CCC4)n2)CCCC3)cc1 [Compound 51, N-cyclobutyl-4-[2-(4-fluorophenyl)-4,5,6,7-tetrahydropyrazolo[1,5-a]pyridin-3-yl]-2-pyrimidinamine] | 155 to 157 | 81 | 100 | 100 | 93 | 100 | 98 | 100 |  |  |  |  |  |  |  |  |  |  |  | 
4 | CC(CO)Nc1nccc(-c2c(-c3ccc(F)cc3)nn3c2COCC3)n1 (stereo not shown) [Compound 108, 2-[[4-[2-(4-fluorophenyl)-6,7-dihydro-4H-pyrazolo[5,1-c][1,4]oxazin-3-yl]-2-pyrimidinyl]amino]-1-propanol] | 124 to 126 | 43 | 87 | 99 | 77 | 100 | 99 | 98 |  |  |  |  |  |  |  |  |  |  |  | 
5 | CC(C)Nc1nccc(-c2c(-c3ccc(F)cc3)nn3c2CCOC3)n1 [Compound 112, 4-[2-(4-fluorophenyl)-4,5-dihydro-7H-pyrazolo[1,5-c][1,3]oxazin-3-yl]-N-(1-methylethyl)-2-pyrimidinamine] | 167 to 169 | 0 | 93 | 99 | 99 | 99 | 95 | 100 |  |  |  |  |  |  |  |  |  |  |  | 
6 | CC(C)Nc1nccc(-c2c(-c3ccccc3)nn3c2COCC3)n1 [Compound 116, 4-(6,7-dihydro-2-phenyl-4H-pyrazolo[5,1-c][1,4]oxazin-3-yl)-N-(1-methylethyl)-2-pyrimidinamine] | 185 to 187 | 90 | 92 | 91 | 95 | 100 | 93 | 100 |  |  |  |  |  |  |  |  |  |  |  | 
7 | c1ccc(-c2nn3c(c2-c2ccnc(NC4CC4)n2)COCC3)cc1 [Compound 117, N-cyclopropyl-4-(6,7-dihydro-2-phenyl-4H-pyrazolo[5,1-c][1,4]oxazin-3-yl)-2-pyrimidinamine] | 186 to 189 | 86 | 98 | 98 | 95 | 100 | 97 | 99 |  |  |  |  |  |  |  |  |  |  |  | 
8 | c1cc(-c2c(-c3ccsc3)nn3c2COCC3)nc(NC2CC2)n1 [Compound 121, N-cyclopropyl-4-[6,7-dihydro-2-(3-thienyl)-4H-pyrazolo[5,1-c][1,4]oxazin-3-yl]-2-pyrimidinamine] | 182 to 184 | 0 | 84 | 93 | 97 | 99 | 94 | 99 |  |  |  |  |  |  |  |  |  |  |  | pest or weed control at 200 ppm ([3]; Colletotrichum orbiculare, 144 h): 15%; pest or weed control at 200 ppm (Alternaria solani; 200 ppm test suspension): 89%; pest or weed control at 200 ppm (Botrytis cinerea): 66%
9 | COC(=O)N1CCn2nc(-c3ccc(F)cc3)c(-c3ccnc(NC(C)C)n3)c2C1 [Compound 138, methyl 2-(4-fluorophenyl)-6,7-dihydro-3-[2-[(1-methylethyl)amino]-4-pyrimidinyl]pyrazolo[1,5-a]pyrazine-5(4H)-carboxylate] | 88 to 89 | 0 | 99 |  |  |  |  |  |  |  |  |  |  |  |  |  |  |  |  | pest or weed control at 40 ppm ([2]; Puccinia, 192 h, 40 ppm test suspension (*)): 98%; pest or weed control at 40 ppm (Fusarium graminearum; [5]): 86%; pest or weed control at 40 ppm (Septoria tritici; Zymoseptoria tritici, 504 h, 40 ppm test suspension (*)): 83%; pest or weed control at 40 ppm (Alternaria solani; 40 ppm test suspension (*)): 99%; pest or weed control at 200 ppm (Botrytis cinerea): 68%; pest or weed control at 200 ppm (Rhizoctonia oryzae; Waitea circinata, in Agrostis stolonifera, 120 h): 0%; pest or weed control at 40 ppm (Phytophthora infestans; [4]): 88%; pest or weed control at 40 ppm (Pythium aphanidermatum; Pythium aphanidermatum, 120 h, 40 ppm test suspension (*)): 99%
10 | CCCC(C)Nc1nccc(-c2c(-c3ccc(F)cc3)nn3c2CCCC3)n1 (stereo not shown) [compound 4] |  |  |  |  |  |  |  |  | 0 | 92 | 100 | 60 | 90 | 8 | 55 | 0 | 0 | 21 | 0 | 
11 | Fc1ccc(-c2nn3c(c2-c2ccnc(NC4CCCC4)n2)CCCC3)cc1 [compound 7] |  |  |  |  |  |  |  |  | 82 | 99 | 100 | 98 | 99 | 90 | 82 | 0 | 93 | 0 | 0 | 
12 | CCC(C)c1ccc(Nc2nccc(-c3c(-c4ccc(F)cc4)nn4c3CCCC4)n2)cc1 (stereo not shown) [compound 9] |  |  |  |  |  |  |  |  | 52 | 97 | 99 | 92 | 0 | 79 | 81 | 0 | 0 | 0 | 0 | 
13 | CCCNc1nccc(-c2c(-c3ccc(F)cc3)nn3c2CCCC3)n1 [compound 11] |  |  |  |  |  |  |  |  | 93 | 99 | 100 | 99 | 98 | 83 | 97 | 44 | 100 | 0 | 100 | 
14 | CN(C)c1nccc(-c2c(-c3ccc(F)cc3)nn3c2CCCC3)n1 [compound 14] |  |  |  |  |  |  |  |  | 95 | 91 | 100 | 73 | 99 | 0 | 0 | 0 | 60 | 0 | 0 | 
